What was measured:
[1] = tested on: barnyardgrass; test: Test A pre-/postemergence herbicide test; type: in vivo, Echinochloa crus-galli
In short: (§1)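 Visual 0–100 ratings (100 = complete control) made about 10 days after treatment, greenhouse-held plants compared with untreated controls. Treatments: postemergence sprays on one- to two-leaf plants (2–10 cm tall) and preemergence directed soil sprays after planting in loam–sand, chemicals formulated in non-phytotoxic solvent containing surfactant.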

[2] = tested on: kochia; test: Test A pre-/postemergence herbicide test; type: in vivo, Kochia scoparia
In short: as §1

[3] = tested on: ragweed; test: Test A pre-/postemergence herbicide test; type: in vivo, Ambrosia elatior
In short: as §1

[4] = tested on: ryegrass, Italian; test: Test A pre-/postemergence herbicide test; type: in vivo, Lolium multiflorum
In short: as §1

[5] = tested on: giant foxtail; test: Test A pre-/postemergence herbicide test; type: in vivo, Setaria faberii
In short: as §1

[6] = tested on: pigweed; test: Test A pre-/postemergence herbicide test; type: in vivo, Amaranthus retroflexus
In short: as §1

[7] = tested on: wheat; test: Test A pre-/postemergence herbicide test; type: in vivo, Triticum aestivum; conditions: Postemergence
In short: as §1

[8] = tested on: corn; test: Test A pre-/postemergence herbicide test; type: in vivo, Zea mays; conditions: Postemergence
In short: as §1

[9] = tested on: blackgrass; test: Test A postemergence herbicide test; type: in vivo, Alopecurus myosuroides
In short: (§2)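 Blackgrass and galium grown in pots of loam soil–sand blend, treated postemergence at 2–10 cm height, one- to two-leaf stage. Plants kept in greenhouse ~10 days, then visually rated for injury against untreated controls on a 0–100 scale (0 no effect, 100 complete control).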

[10] = tested on: galium; test: Test A postemergence herbicide test; type: in vivo, Galium aparine
In short: as §2

[11] = tested on: rice; test: Test B flooded paddy test; type: in vivo, Oryza sativa; conditions: Flood, scale of 0 to 100 where 0 is no effect and 100 is complete control
In short: (§3)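 Visual ratings from 0, meaning no effect, up to 100, meaning complete control, were made by comparison with untreated controls 13 to 15 days after treatment. Test compounds went straight into floodwater standing 3 cm over the soil of pots holding 2-leaf seedlings.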

[12] = tested on: sedge, umbrella; test: Test B flooded paddy test; type: in vivo, Cyperus difformis; conditions: Flood, scale of 0 to 100 where 0 is no effect and 100 is complete control
In short: as §3

[13] = tested on: ducksalad; test: Test B flooded paddy test; type: in vivo, Heteranthera limosa; conditions: Flood, scale of 0 to 100 where 0 is no effect and 100 is complete control
In short: as §3

[14] = tested on: barnyardgrass; test: Test B flooded paddy test; type: in vivo, Echinochloa crus-galli; conditions: Flood, scale of 0 to 100 where 0 is no effect and 100 is complete control
In short: as §3

[15] = 125 g ai/ha, visual rating, 0 to 100 scale, 0 no effect, 100 complete control, approximately 10 days, preemergence
[16] = Postemergence, 125 g ai/ha, 0 to 100 scale, 0 is no effect, 100 is complete control
[17] = preemergence, 500 g ai/ha, 0 to 100 scale, 0 is no effect and 100 is complete control
[18] = 125 g ai/ha, 0 to 100 scale, 0 is no effect, 100 is complete control
[19] = Postemergence, 500 g ai/ha, 0 to 100 scale (0 no effect, 100 complete control)
[20] = Preemergence, 125 g ai/ha, 0 to 100 scale where 0 is no effect and 100 is complete control
[21] = Postemergence, 125 g ai/ha, visual rating on 0 to 100 scale (0 no effect, 100 complete control), approx. 10 days
[22] = 500 g ai/ha, 0 to 100 scale (0 no effect, 100 complete control)

CC(C)(C)c1cccc(C2CNC(=O)C2C(=O)Nc2ccccc2C(F)(F)F)c1 (racemic) [Compound 201]
0: Plant response rating, Barnyardgrass [1, 15] | Plant response rating, Barnyardgrass [1, 16] | Plant response rating, Kochia [2, 15] | Plant response rating, Kochia [2, 16] | Kochia plant response rating (0 to 100 scale, 0 is no effect, 100 is complete control) ([2]; Postemergence, 500 g ai/ha) | Plant response rating, Kochia [2, 17] | Plant response rating, Ragweed [3, 15] | Plant response rating, Ragweed [3, 16] | Ragweed plant response rating (0 to 100 scale, 0 is no effect, 100 is complete control) ([3]; Postemergence, 500 g ai/ha) | Plant response rating, Ragweed [3, 17] | Plant response rating, Ryegrass, Italian [4, 15] | Plant response rating, Ryegrass, Italian [4, 16] | Ryegrass, Italian plant response rating (0 to 100 scale, 0 is no effect, 100 is complete control) ([4]; Postemergence, 500 g ai/ha) | Plant response rating, Ryegrass, Italian [4, 17] | Plant response rating, Foxtail, Giant [5, 16] | Foxtail, Giant plant response rating (0 to 100 scale, 0 is no effect, 100 is complete control) ([5]; Postemergence, 500 g ai/ha) | Plant response rating, Pigweed [6, 15] | Plant response rating, Pigweed [6, 16] | Pigweed plant response rating (0 to 100 scale, 0 is no effect, 100 is complete control) ([6]; Postemergence, 500 g ai/ha) | Plant response rating, Pigweed [6, 17] | Plant response rating, Wheat [7, 18] | Wheat plant response rating (0 to 100 scale, 0 is no effect, 100 is complete control) ([7]; 500 g ai/ha) | Plant response rating, Corn [8, 18] | Corn plant response rating (0 to 100 scale, 0 is no effect, 100 is complete control) ([8]; 500 g ai/ha) | Plant response rating, Blackgrass [9, 18] | Blackgrass plant response rating (0 to 100 scale, 0 is no effect, 100 is complete control) ([9]; 500 g ai/ha) | Plant response rating, Galium [10, 18] | Galium plant response rating (0 to 100 scale, 0 is no effect, 100 is complete control) ([10]; 500 g ai/ha) | Plant response rating, Rice ([11]; 1000 g ai/ha) | Plant response rating, Sedge, Umbrella ([12]; 1000 g ai/ha)
30: Barnyardgrass plant response rating (0 to 100 scale, 0 is no effect, 100 is complete control) ([1]; Postemergence, 500 g ai/ha) | Plant response rating, Foxtail, Giant [5, 17]
70: Plant response rating, Ducksalad ([13]; 1000 g ai/ha)
20: Plant response rating, Barnyardgrass [1, 17] | Plant response rating, Foxtail, Giant [5, 15] | Plant response rating, Barnyardgrass ([14]; 1000 g ai/ha)

O=C1NCC(c2cc3ccccc3o2)C1C(=O)Nc1cccc(F)c1F (stereo not drawn) [Compound 282]
20: Plant response rating, Foxtail, Giant [5, 20] | Plant response rating, Blackgrass [9, 22]
40: Plant response rating, Galium [10, 22]
95: Plant response rating, Ducksalad ([13]; 500 g ai/ha)
30: Plant response rating, Foxtail, Giant [5, 19] | Plant response rating, Sedge, Umbrella ([12]; 500 g ai/ha) | Plant response rating, Barnyardgrass ([14]; 500 g ai/ha)
0: Plant response rating, Kochia [2, 16] | Plant response rating, Kochia [2, 19] | Plant response rating, Kochia [2, 20] | Plant response rating, Ragweed [3, 21] | Plant response rating, Ragweed [3, 19] | Plant response rating, Ragweed [3, 20] | Plant response rating, Ragweed [3, 17] | Plant response rating, Ryegrass, Italian [4, 21] | Plant response rating, Ryegrass, Italian [4, 19] | Plant response rating, Ryegrass, Italian [4, 20] | Plant response rating, Ryegrass, Italian [4, 17] | Plant response rating, Foxtail, Giant [5, 16] | Plant response rating, Pigweed [6, 21] | Plant response rating, Pigweed [6, 19] | Plant response rating, Pigweed [6, 20] | Plant response rating, Pigweed [6, 17] | Plant response rating, Wheat ([7]; 125 g ai/ha, visual rating on 0 to 100 scale (0 no effect, 100 complete control), approx. 10 days) | Plant response rating, Wheat [7, 22] | Plant response rating, Corn [8, 18] | Plant response rating, Corn [8, 22] | Plant response rating, Blackgrass [9, 18] | Plant response rating, Galium [10, 18] | Plant response rating, Rice ([11]; 500 g ai/ha)
70: Plant response rating, Foxtail, Giant [5, 17]
90: Plant response rating, Barnyardgrass [1, 19] | Plant response rating, Barnyardgrass [1, 17]
60: Plant response rating, Barnyardgrass [1, 20]
50: Plant response rating, Barnyardgrass [1, 16] | Plant response rating, Kochia [2, 17]
